Source: patent US11091769B2, “Development and use of modified plants and seeds that are resistant to herbicides and environmental stress” (Texas State University, priority 2017, dated 2021)

Key:
[1] = tested on: Arabidopsis seedlings (primary root growth); assay: Root growth inhibition assay; type: in vivo, Arabidopsis thaliana; details: for primary root growth sensitivity of pic30 mutants: pic30-1, pic30-2 and pic30-3, incremental concentrations; for inhibition at 0.1 µM: 100 nM picloram; for primary root growth inhibition: media containing 10 pM picloram; for root growth sensitivity of PIC30-OX lines: all four PIC30-OX lines
Experimental: For root growth inhibition assays, 4-5 day old seedlings were transferred to control media and media containing indicated concentrations of different auxins. Primary root lengths were measured after 4 days of incubation, and percentage root growth inhibition was calculated.

DR5::GFP auxin sensor = assay: Auxin induced DR5::GFP expression; type: in vivo, Arabidopsis thaliana; details: pic30-3 crossed with DR5::GFP; 5 day-old seedlings; 20 hours incubation
Experimental: To test auxin induced DR5::GFP expression, 5 day-old seedlings were transferred to control media and media containing indicated concentrations of different auxins. Plates were incubated for 20 hours at 21° C. under continuous light. Confocal images were acquired after the incubation period.
Confocal images were acquired using either 20× water immersion or 60× oil immersion lenses with Fluoview™ FV1000 laser scanning confocal microscope (Olympus). While making a quantitative comparison between one or more confocal images, similar laser intensity and transmittance light were used.

Arabidopsis plants = assay: Foliar picloram sensitivity test at the adult stage; type: in vivo, Arabidopsis thaliana
Experimental: For chlorate and picloram sensitivity testing at the adult stage, 7 day-old seedlings were transferred to soil (Fafard growing mix 2) and grown under continuous light for an additional 12 days. To test chlorate sensitivity, plants were then irrigated with 1 mM sodium chlorate solution on alternating days. Chlorate induced leaf bleaching were examined and imaged after 10-12 days. […] Images were acquired 14-18 days after the treatment.

[2] = tested on: Arabidopsis apical root sections (PIC30 transporter); assay: In planta radioactive transport assay; parameters: species or system Arabidopsis thaliana
Experimental: In planta transport assays were performed according to a protocol described elsewhere (Ito and Gray, Plant Physiology 142, 63-74, 2006) with few modifications. 15 mm root sections (at root tip) from 9 day-old seedlings were excised and incubated in transport assay buffer (TAB, 20 mM MES-KOH, pH 5.6, 10 mM sucrose and 0.5 mM CaCl2) for 30 minutes. Root sections were then transferred to the TAB containing 1.5 nM of ^14C picloram and 10 pM of unlabeled picloram or 7.9 nM of ^3H IAA and incubated for 1-6 hours at room temperature. Following thorough rinsing with cold TAB buffer, root sections were transferred to scintillation vials containing 1 ml of scintillation liquid. Radioactivity was measured using scintillation counter (Beckman Coulter, Calif.).

[3] = tested on: PIC30pro::PIC30-GUS expression; assay: PIC30-GUS expression, quantitative MUG assay; type: in vivo, Arabidopsis thaliana; details: 5 day old PIC30pro::PIC30-GUS seedlings; 25 pM picloram; indicated time intervals
Experimental: To study the effect of picloram on PIC30 expression, 5 day old PIC30pro::PIC30-GUS seedlings were treated with 25 pM picloram in liquid media. They were incubated under continuous light at 21° C. without shaking, and samples were collected at different time intervals and frozen in liquid nitrogen. PIC30-GUS expression was determined through quantitative MUG assay.
Quantification of GUS expression was performed by fluorometric MUG (4-methylumbelliferyl-beta-D-glucuronide) assay following protocol described elsewhere (Parry et al. The Plant Cell 18, […], 2006) and the fluorescence was measured using a Fluorometer (Modulus, Turner Biosystems).

[4] = tested on: Arabidopsis seedlings and plants; assay: In planta chlorate sensitivity test; type: in vivo, Arabidopsis thaliana
Experimental: For chlorate sensitivity testing at the seedling stage, seeds were plated onto either control media or media containing 1-1.5 mM sodium chlorate. Plates were incubated under continuous light at 21° C. for 9 days. After the incubation, representative images were acquired using DSLR (PENTAX) camera.
For chlorate and picloram sensitivity testing at the adult stage, 7 day-old seedlings were transferred to soil (Fafard growing mix 2) and grown under continuous light for an additional 12 days. To test chlorate sensitivity, plants were then irrigated with 1 mM sodium chlorate solution on alternating days. Chlorate induced leaf bleaching were examined and imaged after 10-12 days. To test picloram sensitivity, plants were sprayed with 200 g/ha of picloram. Images were acquired 14-18 days after the treatment.

**Q.** What does the source list for `O=C(O)COc1ccc(Cl)cc1Cl` [2,4-D, 2,4-dichlorophenoxyacetic acid]?
**A.** primary root growth sensitivity of pic30 mutants ([1]; 4 days incubation): wild type sensitivity; DR5::GFP expression in pic30-3 (DR5::GFP auxin sensor): upregulated

**Q.** Which “primary root growth sensitivity of pic30 mutants” value ([1]; 4 days incubation) does the source give for `Nc1cc(Cl)nc(C(=O)O)c1Cl` [aminopyralid] here?
**A.** insensitive

**Q.** What about the “DR5::GFP expression in pic30-3” value (DR5::GFP auxin sensor) of the same compound?
**A.** not

**Q.** For `Nc1c(Cl)c(Cl)nc(C(=O)O)c1Cl` [picloram], which inhibition at 0.1 µM ([1]; Arabidopsis thaliana, 96 h, PIC30-OX lines, 4 days incubation) is on record?
**A.** 87 to 89%

**Q.** What about the inhibition at 10 pM ([1]; Arabidopsis thaliana, 96 h, four PIC30-OX lines (PIC30-GFP in pic30-3), 10 pM picloram, 4 days incubation) of the same compound?
**A.** 97 to 98%

**Q.** And the inhibition at 0.1 µM ([1]; Arabidopsis thaliana, 96 h, pic30-3, 4 days incubation)?
**A.** ~10%

**Q.** And the inhibition at 0.1 µM ([1]; Arabidopsis thaliana, 96 h, wild type, 4 days incubation)?
**A.** ~10%

**Q.** What about the “primary root growth sensitivity of pic30 mutants” value ([1]; 4 days incubation) of the same compound?
**A.** highly insensitive

**Q.** What about the “primary root growth inhibition” value ([1]; pic30-3 mutant, 4 days incubation) of the same compound?
**A.** 46%

**Q.** What about the “primary root growth sensitivity of pic30-1-OX lines” value ([1]; three independent homozygous pic30-1-OX lines in wild type background) of the same compound?
**A.** insensitive

**Q.** And the “primary root growth inhibition” value ([1]; wild type, 4 days incubation)?
**A.** approximately 73%

**Q.** And the “response to foliar treatment” value (Arabidopsis plants; PIC30-OX adult plants, 100 g/ha)?
**A.** hypersensitive

**Q.** And the “response to foliar treatment” value (Arabidopsis plants; pic30-1, pic30-2, pic30-3 adult plants, 200 g/ha sprayed)?
**A.** highly insensitive

**Q.** And the “DR5::GFP expression in pic30-3” value (DR5::GFP auxin sensor)?
**A.** not

**Q.** And the “picloram uptake in pic30-3 versus wild type root sections” value ([2]; pic30-3, 14C-picloram, 15 mm root sections of 9 day-old seedlings)?
**A.** significantly lower

**Q.** And the “picloram uptake relative to wild type roots” value ([2]; two PIC30-OX lines, 14C-picloram, 15 mm apical root sections)?
**A.** 26-30 times

**Q.** What about the “effect on PIC30 gene expression” value [3] of the same compound?
**A.** did not have influence

**Q.** Which “root growth sensitivity of PIC30-OX lines” value ([1]; 4 days incubation) does the source give for `O=C(O)Cc1cccc2ccccc12` [1-NAA, 1-Naphthaleneacetic acid] here?
**A.** wild-type sensitivity

**Q.** What about the “primary root growth sensitivity of pic30 mutants” value ([1]; 4 days incubation) of the same compound?
**A.** wild type sensitivity

**Q.** For `O=C(O)Cc1c[nH]c2ccccc12` [IAA, indole-3-acetic acid], which “root growth sensitivity of PIC30-OX lines” value ([1]; 4 days incubation) is on record?
**A.** wild-type sensitivity

**Q.** What about the “primary root growth sensitivity of pic30 mutants” value ([1]; 4 days incubation) of the same compound?
**A.** wild type sensitivity

**Q.** What about the “DR5::GFP expression in pic30-3” value (DR5::GFP auxin sensor) of the same compound?
**A.** upregulated

**Q.** What about the “IAA uptake, wild type versus pic30-3” value ([2]; 3H-IAA, 15 mm apical root sections) of the same compound?
**A.** no difference

**Q.** What does the source list for `[O-][Cl+2]([O-])O` [chlorate, sodium chlorate]?
**A.** chlorate sensitivity ([4]; PIC30-OX lines, adult stage, irrigated with chlorate solution): wild-type sensitivity; chlorate sensitivity ([4]; all four PIC30-OX lines, seedling stage): hypersensitivity; chlorate induced cotyledon and leaf bleaching ([4]; pic30-1, seedling and adult stages): pronounced cotyledon and leaf bleaching; chlorate induced cotyledon and leaf bleaching ([4]; pic30-2, seedling and adult stages): pronounced cotyledon and leaf bleaching; chlorate induced necrosis and leaf bleaching ([4]; pic30-3, seedling and adult stages): insensitive; chlorate induced cotyledon and leaf bleaching ([4]; wild type, seedling (1-1.5 mM sodium chlorate, 9 days) and adult (1 mM irrigation) stages): pronounced cotyledon and leaf bleaching
